In PMC5026608 (ACS chemical biology, 2016):

Target: hMAT2A (Homo sapiens, UniProt P31153)
Test: RP-HPLC of AdoMet product formation
Assay type: biochemical
Conditions: read-out: Km μmol L^-1; saturating ATP 2 mM; 25 mM Tris pH 8.0, 10 mM MgCl2, 50 mM KCl; 37 °C; text prints error ± 27

Sequence of hMAT2A (P31153 whole entry): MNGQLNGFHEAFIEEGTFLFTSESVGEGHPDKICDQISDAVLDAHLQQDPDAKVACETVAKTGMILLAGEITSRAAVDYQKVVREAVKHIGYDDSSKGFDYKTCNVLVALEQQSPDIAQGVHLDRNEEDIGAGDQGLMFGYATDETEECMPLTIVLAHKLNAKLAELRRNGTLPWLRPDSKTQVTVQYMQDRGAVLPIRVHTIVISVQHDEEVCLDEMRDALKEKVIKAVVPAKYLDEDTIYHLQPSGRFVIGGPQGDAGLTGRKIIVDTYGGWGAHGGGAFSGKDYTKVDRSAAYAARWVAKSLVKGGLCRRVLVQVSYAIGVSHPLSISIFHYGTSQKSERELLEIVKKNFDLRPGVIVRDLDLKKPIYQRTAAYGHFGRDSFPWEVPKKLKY

CSCC[C@H](N)C(=O)O [LMet]
Km: 397 ± 29 µM
